What was measured:
Format in all cases: biochemical
[1] = target: JAK2 (Homo sapiens, UniProt O60674); assay: JAK2 Assay (Caliper EZ Reader, fluoresceinated peptide); details: ATP 11.4 μM; JAK2 0.25 nM; 15 minutes at room temperature; read-out: JAK2 inhibition
Description: JAK2 Assay 384-well plates in the left foot butoxy measured progress. The final assay volume was 25 μL, 250 nL 100× compounds, 10 μL enzyme mix and 15 μL substrate mix (fluoresceinated peptide and ATP) in assay buffer (50 mM HEPES (pH 7.5), 10 mM MgCl2, 0.01% TritonX-100, 0.01% Brij35, 0.5 mM EGTA and 2 mM DTT) prepared as test compound By mixing the JAK2 with substrates and test compounds to start the reaction. The reaction mixture was incubated for 15 minutes at room temperature, then added 30 μL stop buffer for each sample to terminate the reaction with 50 mM EDTA. After termination of the kinase reaction, the proportion of phosphorylated product was determined as a fraction of total peptide substrate using Caliper EZ Reader 1 Inhibition data were calculated by comparison with 100% of the reaction mixture without enzyme inhibition and vehicle-only reaction mixture billion % inhibition compared. The final concentration of reagents in the assays is: ATP, 11.4 μM; JAK2 fluorescent peptide (5-FAM-EEPLYWSFPAKKK-CONH2), 3 μM; JAK2, 0.25 nM; and DMSO, 1%. Dose response curve were generated to determine the concentration required for IC50 of JAK2 activity.

[2] = target: T1, JAK3 (Homo sapiens, UniProt P52333); assay: JAK3 Assay (Caliper EZ Reader, fluoresceinated peptide); details: ATP 3.5 μM; JAK3 0.5 nM; 30 minutes at room temperature; read-out: JAK3 inhibition
T1 sequence (P52333 1-1124): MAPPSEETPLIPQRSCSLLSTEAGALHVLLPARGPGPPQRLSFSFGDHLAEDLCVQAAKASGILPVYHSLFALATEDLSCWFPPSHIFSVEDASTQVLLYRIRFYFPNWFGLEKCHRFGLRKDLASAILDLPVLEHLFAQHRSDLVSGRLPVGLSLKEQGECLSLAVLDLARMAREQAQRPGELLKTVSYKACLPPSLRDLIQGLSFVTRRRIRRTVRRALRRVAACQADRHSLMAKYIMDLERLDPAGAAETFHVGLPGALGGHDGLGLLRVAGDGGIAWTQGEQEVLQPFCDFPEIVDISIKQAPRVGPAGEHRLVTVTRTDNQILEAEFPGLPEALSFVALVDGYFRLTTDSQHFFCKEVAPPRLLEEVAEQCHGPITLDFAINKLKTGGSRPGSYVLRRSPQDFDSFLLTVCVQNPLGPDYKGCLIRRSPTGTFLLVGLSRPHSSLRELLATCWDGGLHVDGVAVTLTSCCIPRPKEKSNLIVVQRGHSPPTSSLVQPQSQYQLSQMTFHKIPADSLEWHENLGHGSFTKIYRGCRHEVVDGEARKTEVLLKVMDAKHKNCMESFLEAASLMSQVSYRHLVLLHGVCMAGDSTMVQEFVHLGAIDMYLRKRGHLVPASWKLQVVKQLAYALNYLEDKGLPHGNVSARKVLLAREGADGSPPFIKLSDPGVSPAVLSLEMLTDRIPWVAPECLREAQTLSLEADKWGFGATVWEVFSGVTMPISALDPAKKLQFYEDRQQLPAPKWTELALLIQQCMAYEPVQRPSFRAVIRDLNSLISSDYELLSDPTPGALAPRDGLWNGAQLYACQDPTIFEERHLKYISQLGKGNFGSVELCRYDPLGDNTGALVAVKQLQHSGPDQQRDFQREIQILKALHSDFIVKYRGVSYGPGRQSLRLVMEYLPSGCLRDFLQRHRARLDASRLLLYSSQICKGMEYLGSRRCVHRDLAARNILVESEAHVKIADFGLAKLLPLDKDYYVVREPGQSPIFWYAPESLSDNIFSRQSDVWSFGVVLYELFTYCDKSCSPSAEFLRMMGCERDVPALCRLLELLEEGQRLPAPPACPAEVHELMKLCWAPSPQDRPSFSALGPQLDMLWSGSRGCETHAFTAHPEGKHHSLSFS
Description: JAK3 Assay 384-well plates in the left foot butoxy measured progress. The final assay volume was 25 μL, 250 nL 100× compounds, 10 μL enzyme mix and 15 μL substrate mix (fluoresceinated peptide and ATP) in assay buffer (50 mM HEPES (pH 7.5), 10 mM MgCl2, 0.01% TritonX-100, 0.01% Brij35, 0.5 mM EGTA and 2 mM DTT) prepared as test compound. By mixing the JAK3 with substrates and test compounds to start the reaction. The reaction mixture was incubated for 30 minutes at room temperature, then added 30 μL stop buffer for each sample to terminate the reaction with 50 mM EDTA. After termination of the kinase reaction, the proportion of phosphorylated product was determined as a fraction of total peptide substrate using Caliper EZ Reader II. Inhibition data were calculated by comparison with 100% of the reaction mixture without enzyme inhibition and vehicle-only reaction mixture billion % inhibition compared. The final concentration of reagents in the assays is: ATP, 3.5 μM; JAK3 fluorescent peptide (5-FAM-EEPLYWSFPAKKK-CONH2), 3 μM; JAK3, 0.5 nM; and DMSO, 1%. Dose response curve were generated to determine the concentration required for IC50 of JAK3 activity.

[3] = target: JAK1 (Homo sapiens, UniProt P23458); assay: JAK Kinase Assay (JAK1, Caliper EZ Reader, fluoresceinated peptide); details: ATP 76.5 μM; JAK1 10 nM; 120 minutes at room temperature; read-out: JAK1 inhibition
JAK1, sequence (P23458 whole entry, species assumed): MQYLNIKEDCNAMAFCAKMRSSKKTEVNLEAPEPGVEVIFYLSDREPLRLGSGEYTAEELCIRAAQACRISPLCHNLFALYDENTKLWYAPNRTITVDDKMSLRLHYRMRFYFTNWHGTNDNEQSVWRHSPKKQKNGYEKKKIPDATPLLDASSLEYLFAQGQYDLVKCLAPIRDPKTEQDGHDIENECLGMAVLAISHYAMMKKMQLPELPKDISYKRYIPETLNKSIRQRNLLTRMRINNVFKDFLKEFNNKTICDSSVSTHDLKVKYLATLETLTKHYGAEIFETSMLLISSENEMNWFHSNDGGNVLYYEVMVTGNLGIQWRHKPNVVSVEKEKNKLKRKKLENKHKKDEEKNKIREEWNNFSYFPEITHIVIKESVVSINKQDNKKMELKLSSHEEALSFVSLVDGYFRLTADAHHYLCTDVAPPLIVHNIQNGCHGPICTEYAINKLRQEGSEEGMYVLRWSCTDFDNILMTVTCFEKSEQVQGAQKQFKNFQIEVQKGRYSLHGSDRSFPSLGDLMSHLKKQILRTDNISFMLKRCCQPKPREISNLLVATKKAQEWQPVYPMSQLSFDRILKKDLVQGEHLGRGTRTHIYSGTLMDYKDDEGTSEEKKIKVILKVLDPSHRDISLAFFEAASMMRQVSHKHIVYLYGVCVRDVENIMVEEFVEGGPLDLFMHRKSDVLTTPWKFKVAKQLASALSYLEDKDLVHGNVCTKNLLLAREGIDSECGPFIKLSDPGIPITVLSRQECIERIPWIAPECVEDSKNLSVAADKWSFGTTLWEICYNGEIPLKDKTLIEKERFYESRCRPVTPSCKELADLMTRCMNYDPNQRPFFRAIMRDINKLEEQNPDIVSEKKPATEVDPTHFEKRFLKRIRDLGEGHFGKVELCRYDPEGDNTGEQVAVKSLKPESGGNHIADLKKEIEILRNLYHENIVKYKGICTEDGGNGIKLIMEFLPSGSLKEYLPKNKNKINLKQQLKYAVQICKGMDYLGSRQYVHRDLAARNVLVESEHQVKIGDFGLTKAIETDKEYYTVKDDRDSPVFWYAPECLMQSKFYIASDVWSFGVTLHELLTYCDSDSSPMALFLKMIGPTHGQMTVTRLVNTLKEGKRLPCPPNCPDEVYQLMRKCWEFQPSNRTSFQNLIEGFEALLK
Description: JAK Kinase Assay 384-well plates in the left foot butoxy measured progress. The final assay volume was 25 μL, 250 nL 100× compounds, 10 μL enzyme mix and 15 μL substrate mix (fluoresceinated peptide and ATP) in assay buffer (20 mM HEPES (pH 7.5), 10 mM MgCl2, […], 0.5 mM EGTA and 2 mM DTT) prepared as test compound. By mixing the JAK1 with substrates and test compounds to start the reaction. There action mixture was incubated for 120 minutes at room temperature, then added 30 μL stop buffer for each sample to terminate the reaction with 50 mM EDTA. After termination of the kinase reaction, the proportion of phosphorylated product was determined as a fraction of total peptide substrate using Caliper EZ Reader II. Inhibition data were calculated by comparison with 100% of the reaction mixture without enzyme inhibition and vehicle-only reaction mixture billion % inhibition compared. The final concentration of reagents in the assays is: ATP, 76.5 μM; JAK1 fluorescent peptide (5-FAM-EEPLYWSFPAKKK-CONH2), 3 μM; JAK1, 10 nM, and DMSO, 1%. Dose response curve were generated to determine the concentration required for IC50 of JAK activity.

JAK2, sequence (O60674 whole entry, species assumed): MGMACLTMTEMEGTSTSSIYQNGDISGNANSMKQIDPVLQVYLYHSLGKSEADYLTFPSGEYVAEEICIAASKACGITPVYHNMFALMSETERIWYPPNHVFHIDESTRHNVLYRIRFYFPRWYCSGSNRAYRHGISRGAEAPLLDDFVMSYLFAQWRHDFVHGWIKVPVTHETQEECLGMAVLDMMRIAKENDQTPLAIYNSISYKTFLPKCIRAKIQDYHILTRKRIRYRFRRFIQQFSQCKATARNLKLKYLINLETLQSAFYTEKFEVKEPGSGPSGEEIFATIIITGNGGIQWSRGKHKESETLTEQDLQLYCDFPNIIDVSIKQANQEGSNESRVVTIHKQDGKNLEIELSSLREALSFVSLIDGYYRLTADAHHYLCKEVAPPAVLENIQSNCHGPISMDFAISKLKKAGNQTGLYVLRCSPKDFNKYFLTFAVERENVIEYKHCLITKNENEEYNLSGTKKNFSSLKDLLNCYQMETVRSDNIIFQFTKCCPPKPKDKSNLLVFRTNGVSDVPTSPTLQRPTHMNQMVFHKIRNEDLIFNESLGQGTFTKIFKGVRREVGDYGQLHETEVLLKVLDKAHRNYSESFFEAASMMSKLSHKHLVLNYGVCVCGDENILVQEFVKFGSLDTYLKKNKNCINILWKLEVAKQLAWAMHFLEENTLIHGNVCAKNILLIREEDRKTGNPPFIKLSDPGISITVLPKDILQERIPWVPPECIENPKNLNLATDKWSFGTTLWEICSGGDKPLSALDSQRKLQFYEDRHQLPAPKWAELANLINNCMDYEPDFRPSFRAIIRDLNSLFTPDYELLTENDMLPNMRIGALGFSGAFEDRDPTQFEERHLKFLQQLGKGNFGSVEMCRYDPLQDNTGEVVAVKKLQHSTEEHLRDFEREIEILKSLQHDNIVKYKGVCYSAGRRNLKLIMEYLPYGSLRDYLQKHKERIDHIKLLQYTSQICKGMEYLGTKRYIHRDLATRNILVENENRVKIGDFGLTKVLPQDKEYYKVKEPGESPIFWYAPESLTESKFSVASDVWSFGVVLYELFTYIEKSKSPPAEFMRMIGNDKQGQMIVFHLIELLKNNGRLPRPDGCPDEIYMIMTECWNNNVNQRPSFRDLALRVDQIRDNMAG

Compound | IC50 [1] [nM] | IC50 [2] [µM] | IC50 [3] [nM]
CCC(=O)N1CC2(CC(N(C)c3ncnc4[nH]ccc34)C2)C1 [Compound 5, 1-(6-(methyl(7H-pyrrolo[2,3-d]pyrimidin-4-yl)amino)-2-azaspiro[3.3]heptan-2-yl)propan-1-one] | 100 to 1000 | 1 to 10 | 100 to 1000
CCS(=O)(=O)N1CC2(CC(N(C)c3ncnc4[nH]ccc34)C2)C1 [Compound 6, N-(2-(ethylsulfonyl)-2-azaspiro[3.3]heptan-6-yl)-N-methyl-7H-pyrrolo[2,3-d]pyrimidin-4-amine] | 100 to 1000 | ≥ 10 | 100 to 1000
COC(=O)N1CC2(CC(N(C)c3ncnc4[nH]ccc34)C2)C1 [Compound 7, methyl 6-(methyl(7H-pyrrolo[2,3-d]pyrimidin-4-yl)amino)-2-azaspiro[3.3]heptan-2-carboxylate] | 1000 to 10000 | 1 to 10 | 100 to 1000
CCOC(=O)N1CC2(CC(N(C)c3ncnc4[nH]ccc34)C2)C1 [Compound 8, ethyl 6-(methyl(7H-pyrrolo[2,3-d]pyrimidin-4-yl)amino)-2-azaspiro[3.3]heptane-2-carboxylate] | 1000 to 10000 | 1 to 10 | 100 to 1000
CN(c1ncnc2[nH]ccc12)C1CC2(C1)CN(C(=O)c1cccnc1)C2 [Compound 9, (6-(methyl(7H-pyrrolo[2,3-d]pyrimidin-4-yl)amino)-2-azaspiro[3.3]heptan-2-yl)(pyridin-3-yl)methanone] | 100 to 1000 | 1 to 10 | 10 to 100
CN(c1ncnc2[nH]ccc12)C1CC2(C1)CN(C(=O)CCC#N)C2 [Compound 10, 4-(6-(methyl(7H-pyrrolo[2,3-d]pyrimidin-4-yl)amino)-2-azaspiro[3.3]heptan-2-yl)-4-oxobutanenitrile] | 100 to 1000 | 1 to 10 | 10 to 100
CN(c1ncnc2[nH]ccc12)C1CC2(C1)CN(C(=O)c1cccc(C#N)c1)C2 [Compound 11, 3-(6-(methyl(7H-pyrrolo[2,3-d]pyrimidin-4-yl)amino)-2-azaspiro[3.3]heptane-2-carbonyl)benzonitrile] | 100 to 1000 | 1 to 10 | 10 to 100
CN(c1ncnc2[nH]ccc12)C1CC2(C1)CN(C(=O)C1CCC(=O)CC1)C2 [Compound 12, 4-(6-(methyl(7H-pyrrolo[2,3-d]pyrimidin-4-yl)amino)-2-azaspiro[3.3]heptane-2-carbonyl)cyclohexanone] | 100 to 1000 | 1 to 10 | 10 to 100
CN(c1ncnc2[nH]ccc12)C1CC2(C1)CN(C(=O)c1cccc(C(F)(F)F)c1)C2 [Compound 13, (6-(methyl(7H-pyrrolo[2,3-d]pyrimidin-4-yl)amino)-2-azasprio[3.3]heptan-2-yl)(3-(trifluoromethyl)phenyl)methanone] | 1000 to 10000 | 1 to 10 | 100 to 1000
CN(c1ncnc2[nH]ccc12)C1CC2(C1)CN(C(=O)Cc1ccc(C#N)cc1)C2 [Compound 15, 4-(2-(6-(methyl(7H-pyrrolo[2,3-d]pyrimidin-4-yl)amino)-2-azaspiro[3.3]heptan-2-yl)-2-oxoethyl)benzonitrile] | 1000 to 10000 | 1 to 10 | 100 to 1000
CN(c1ncnc2[nH]ccc12)C1CC2(C1)CN(C(=O)CCS(C)(=O)=O)C2 [Compound 16, 1-(6-(methyl(7H-pyrrolo[2,3-d]pyrimidin-4-yl)amino)-2-azaspiro[3.3]heptan-2-yl)-3-(methylsulfonyl)propan-1-one] | 1000 to 10000 | 1 to 10 | 100 to 1000
CN(c1ncnc2[nH]ccc12)C1CC2(C1)CN(C(=O)c1cccc(OC(F)(F)F)c1)C2 [Compound 17, (6-(methyl(7H-pyrrolo[2,3-d]pyrimidin-4-yl)amino)-2-azaspiro[3.3]heptan-2-yl)(3-(trifluoromethoxy)phenyl)methanone] | 1000 to 10000 | ≥ 10 | 100 to 1000
CN(c1ncnc2[nH]ccc12)C1CC2(C1)CN(C(=O)c1cnccn1)C2 [Compound 18, (6-(methyl(7H-pyrrolo[2,3-d]pyrimidin-4-yl)amino)-2-azaspiro[3.3]heptan-2-yl)(pyrazin-2-yl)methanone] | 1000 to 10000 | ≥ 10 | 100 to 1000
CN(c1ncnc2[nH]ccc12)C1CC2(C1)CN(C(=O)C1(C#N)CC1)C2 [Compound 19, 1-(6-(methyl(7H-pyrrolo[2,3-d]pyrimidin-4-yl)amino)-2-azaspiro[3.3]heptane-2-carbonyl)cyclopropanecarbonitrile] | 100 to 1000 | 1 to 10 | 10 to 100
CN(c1ncnc2[nH]ccc12)C1CC2(C1)CN(C(=O)c1cc3ccccc3s1)C2 [Compound 20, benzo[b]thiophen-2-yl(6-(methyl(7H-pyrrolo[2,3-d]pyrimidin-4-yl)amino)-2-azaspiro[3.3]heptan-2-yl)methanone] | 1000 to 10000 | 1 to 10 | 10 to 100
CN(c1ncnc2[nH]ccc12)C1CC2(C1)CN(C(=O)CCC(F)(F)F)C2 [Compound 21, 4,4,4-trifluoro-1-(6-(methyl(7H-pyrrolo[2,3-d]pyrimidin-4-yl)amino)-2-azaspiro[3.3]heptan-2-yl)butan-1-one] | 100 to 1000 | 1 to 10 | 10 to 100
CN(c1ncnc2[nH]ccc12)C1CC2(C1)CN(C(=O)c1csc3ccccc13)C2 [Compound 22, benzo[b]thiophen-3-yl(6-(methyl(7H-pyrrolo[2,3-d]pyrimidin-4-yl)amino)-2-azaspiro[3.3]heptan-2-yl)methanone] | 1000 to 10000 | 1 to 10 | 10 to 100

— patent US11365188B2, “JAK inhibitors” (priority 2018, dated 2022)
